Laboratory results as given in patent US20240261249A1, “NOVEL SQUARAMIDE DERIVATIVE AND USE THEREOF” (PUSAN NATIONAL UNIVERSITY INDUSTRY-UNIVERSITY COOPERATION …, priority 2021, published 2024).

Each molecule was assayed on Phospho-eIF2α (Ser51) (assay: Phospho-eIF2α (Ser51) Sandwich ELISA in K562 cells). Conditions: Homo sapiens, K562, 6 h, serum-free RPMI, 10 μM compound, control = 1, read-out: eIF2α phosphorylation, absorbance standardized to control (DMSO-treated) set to 1, at 10 μM.
Type: cell-based
Experimental: Pathscan Phospho-eIF2α (Ser51) Sandwich ELISA Kit #7286 from Cell signaling was used. The K562 cell line was cultured in serum-free RPMI medium at 37° C. in the presence of 5% CO2. Cells were treated with test compounds at a concentration of 10 μM. Six hours after compound treatment, the cells were lysed with a lysis buffer included in the kit to obtain 50 μg of protein by quantification. Afterwards, ELISA assay was performed according to the manufacturer's protocol to obtain absorbance. The absorbance for each obtained compound was standardized to a value of which the control (DMSO-treated) is set to 1.
With CS(=O)(=O)c1ccc(O[C@H]2CC[C@H](Nc3c(Nc4cccc(Cl)c4)c(=O)c3=O)CC2)cc1 [Compound 21, 3-((3-Chlorophenyl)amino)-4-(((1,4-trans)-4-(4-(methylsulfonyl)phenoxy)cyclohexyl)amino)cyclobut-3-ene-1,2-dione] the activity at 10 µM was 77%.
With N#Cc1ccc(O[C@H]2CC[C@H](Nc3c(Nc4ccc(Cl)cc4)c(=O)c3=O)CC2)cc1 [Compound 43, 4-(((1,4-trans)-4-((2-((4-Chlorophenyl)amino)-3,4-dioxocyclobut-1-en-1-yl)amino)cyclohexyl)oxy)benzonitrile] the activity at 10 µM was 87%.
COc1ccc(Nc2c(N[C@H]3CC[C@H](Oc4ccc(C#N)cc4)CC3)c(=O)c2=O)cc1 [Compound 55, 4-(((1,4-trans)-4-((2-((4-Methoxyphenyl)amino)-3,4-dioxocyclobut-1-en-1-yl)amino)cyclohexyl)oxy)benzonitrile] showed an activity at 10 µM of 84%.
O=c1c(Nc2ccc(Cl)cc2)c(N[C@H]2CC[C@H](Oc3ccc([N+](=O)[O-])cc3)CC2)c1=O [Compound 44, 3-((4-Chlorophenyl)amino)-4-(((1,4-trans)-4-(4-nitrophenoxy)cyclohexyl)amino)cyclobut-3-ene-1,2-dione] was tested, and the activity at 10 µM was 147%.
O=c1c(Nc2ccccc2)c(N[C@H]2CC[C@H](Oc3ccc([N+](=O)[O-])cc3)CC2)c1=O [Compound 10, 3-(((1,4-trans)-4-(4-Nitrophenoxy)cyclohexyl)amino)-4-(phenylamino)cyclobut-3-ene-1,2-dione] showed an activity at 10 µM of 84%.
O=c1c(Nc2ccc(F)cc2)c(N[C@H]2CC[C@H](Oc3ccc([N+](=O)[O-])cc3)CC2)c1=O [Compound 40, 3-((4-Fluorophenyl)amino)-4-(((1,4-trans)-4-(4-nitrophenoxy)cyclohexyl)amino)cyclobut-3-ene-1,2-dione] gave an activity at 10 µM of 82%.
NS(=O)(=O)c1ccc(O[C@H]2CC[C@H](Nc3c(Nc4cccc(C(F)(F)F)c4)c(=O)c3=O)CC2)cc1 [Compound 27, 4-(((1,4-trans)-4-((3,4-Dioxo-2-((3-(trifluoromethyl)phenyl)amino)cyclobut-1-en-1-yl)amino)cyclohexyl)oxy)benzenesulfonamide] gave an activity at 10 µM of 108%.
With COC(=O)c1ccc(Nc2c(N[C@H]3CC[C@H](Oc4ccc(C(F)(F)F)cc4)CC3)c(=O)c2=O)cc1 [Compound 58, Methyl 4-((3,4-dioxo-2-(((1,4-trans)-4-(4-(trifluoromethyl)phenoxy)cyclohexyl)amino)cyclobut-1-en-1-yl)amino)benzoate] the activity at 10 µM was 97%.
O=c1c(Nc2cccc(F)c2)c(N[C@H]2CC[C@H](Oc3ccc([N+](=O)[O-])cc3)CC2)c1=O [Compound 15, 3-((3-Fluorophenyl)amino)-4-(((1,4-trans)-4-(4-nitrophenoxy)cyclohexyl)amino)cyclobut-3-ene-1,2-dione] showed an activity at 10 µM of 81%.
O=c1c(Nc2ccccc2F)c(N[C@H]2CC[C@H](Oc3ccc([N+](=O)[O-])cc3)CC2)c1=O [Compound 64, 3-((2-Fluorophenyl)amino)-4-(((1,4-trans)-4-(4-nitrophenoxy)cyclohexyl)amino)cyclobut-3-ene-1,2-dione] gave an activity at 10 µM of 133%.
With CC(C)(C)c1ccc(Nc2c(N[C@H]3CC[C@H](Oc4ccc(C#N)cc4)CC3)c(=O)c2=O)cc1 [Compound 51, 4-(((1,4-trans)-4-((2-((4-(tert-Butyl)phenyl)amino)-3,4-dioxocyclobut-1-en-1-yl)amino)cyclohexyl)oxy)benzonitrile] the activity at 10 µM was 182%.
Molecule O=c1c(Nc2ccc(Cl)cc2)c(N[C@H]2CC[C@H](Oc3ccc(C(F)(F)F)cc3)CC2)c1=O [Compound 42, 3-((4-Chlorophenyl)amino)-4-(((1,4-trans)-4-(4-(trifluoromethyl)phenoxy)cyclohexyl)amino)cyclobut-3-ene-1,2-dione] has an activity at 10 µM of 93%.
In the case of O=c1c(Nc2ccccc2Cl)c(N[C@H]2CC[C@H](Oc3ccc([N+](=O)[O-])cc3)CC2)c1=O [Compound 68, 3-((2-Chlorophenyl)amino)-4-(((1,4-trans)-4-(4-nitrophenoxy)cyclohexyl)amino)cyclobut-3-ene-1,2-dione], the activity at 10 µM is reported as 209%.
